Measurements published in publication PMC7413254 (Nature Communications, 2020).
Changes are numbered by the printed parent chain.

Key:
[1] = system: C4^Dd2 versus C2^GC03 infected erythrocytes; assay: Peptidomic analysis, peptide levels in C4^Dd2 relative to C2^GC03 parasites (LC-MS); type: cell-based, Plasmodium falciparum
[2] = molecular target: T1, PfCRT^3D7 in C2^GC03 parasites (Plasmodium falciparum, UniProt Q8IBZ9); assay: P. falciparum H+-efflux assay (rate of DV alkalinisation after concanamycin A); type: cell-based; conditions: C2GC03; for Effect on rate of DV alkalinisation / H+ leak (in words): test solute 10 μM
T1 construct: PfCRT also functions as a peptide transporter within its native environment of the DV membrane; expressed in transfected cells; host or cells: P. falciparum pfcrt transfectant line C2^GC03 (saponin-isolated trophozoites)
T1 sequence (Q8IBZ9 1-424): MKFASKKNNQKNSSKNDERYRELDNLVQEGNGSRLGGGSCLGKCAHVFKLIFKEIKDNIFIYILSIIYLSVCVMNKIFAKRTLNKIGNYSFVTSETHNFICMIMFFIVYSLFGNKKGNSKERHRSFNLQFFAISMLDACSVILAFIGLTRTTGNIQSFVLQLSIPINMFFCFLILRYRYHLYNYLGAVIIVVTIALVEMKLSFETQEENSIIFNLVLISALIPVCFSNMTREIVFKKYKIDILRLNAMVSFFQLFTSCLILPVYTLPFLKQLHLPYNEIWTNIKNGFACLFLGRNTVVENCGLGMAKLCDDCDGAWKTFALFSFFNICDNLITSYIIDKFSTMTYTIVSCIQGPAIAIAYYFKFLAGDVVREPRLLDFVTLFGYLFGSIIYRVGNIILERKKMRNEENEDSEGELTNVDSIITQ

[3] = molecular target: T2, PfCRT^7G8 in C6^7G8 parasites (Plasmodium falciparum, UniProt Q8IBZ9, A220S/C72S/I351M/I356L/K76T/N326D); assay: as above; type: cell-based; conditions: C67G8; for Effect on rate of DV alkalinisation / H+ leak (in words): test solute 10 μM
T2 construct: PfCRT also functions as a peptide transporter within its native environment of the DV membrane; expressed in transfected cells; host or cells: P. falciparum pfcrt transfectant line C6^7G8 (saponin-isolated trophozoites)
T2 sequence (Q8IBZ9 1-424 C72S/K76T/A220S/N326D/I351M/I356L): T1 sequence (Q8IBZ9 1-424) with C72S, K76T, A220S, N326D, I351M, I356L

non-expressing oocytes = assay: [3H]VF-6 transport (efflux) from injected Xenopus oocytes; type: cell-based, Xenopus laevis; conditions: trans-inhibition, treatment 45 mM
Protocol: The characterisation of [^3H]VF-6 transport via 23 different field and laboratory-derived isoforms of PfCRT was undertaken with oocytes two days post-cRNA-injection (Figs. 3a–j, 4; Supplementary Fig. 2). The oocytes were injected with 25 nL of ND96 buffer (pH 5.5) supplemented with [^3H]VF-6 and unlabelled VF-6 to achieve estimated intracellular concentrations of 1.4 and 200 μM, respectively. Ten oocytes that had resealed at the injection site were transferred to a 5 mL polystyrene round bottom tube (In Vitro Technologies) and washed with 3.5 mL of ND96 buffer before being transferred to separate wells of a white 96-well plate (PerkinElmer). This treatment served to establish the amount of radioactivity within the oocytes immediately prior to the commencement of the transport assay. Another 10 resealed oocytes were transferred to a 5 mL tube and washed with 3.5 mL of ND96 buffer. The assay commenced with the addition of 100 μL of ND96 buffer and the oocytes were incubated at 27.5 °C for 1.5 h (unless specified otherwise; Fig. 3b). The assay was terminated by removing the reaction buffer with a pipette and washing the oocytes twice with 3.5 mL of ice-cold ND96 buffer. Each oocyte was transferred to a separate well of a white 96-well plate. The oocytes were lysed by the addition of 20 μL of 10% (w/v) SDS and overnight incubation at room temperature. The lysed oocyte was then combined with 150 μL of MicroScint-40 microscintillant (PerkinElmer), the plate covered with a TopSeal-A (PerkinElmer), and the radioactivity measured with a MicroBeta^2 microplate liquid scintillation analyser (PerkinElmer). VF-6 transport was calculated by subtracting the amount of radioactivity (measured in counts per minute) present within the oocytes at the end of the incubation from that measured in the oocytes sampled immediately before the commencement of the assay. The pH-dependence of transport (Fig. 3c) was determined by injecting the oocytes with [^3H]VF-6 suspended in 25 nL ND96 buffer adjusted to pH 5.0, 5.5, 6.0 or 7.0, which corresponded to the injection of 2.5–250 fmol of H^+. The dependence of [^3H]VF-6 transport on Na^+ or Cl^− was examined by injecting the oocytes with [^3H]VF-6 suspended in the control ND96 buffer (pH 5.5) or a version of this buffer that lacked either Na^+ or Cl^− (Supplementary Fig. 2). Na^+ was replaced with 96 mM of KCl and Cl^− was replaced with gluconate salts of Na^+ (NaC6H11O7; 96 mM), K^+ (KC6H11O7; 2 mM), Mg^2+ (MgC12H22O14; 1 mM) and Ca^2+ (CaC12H22O14; 1.8 mM). The dependence of peptide transport on Ca^2+ was determined by injecting the oocytes with [^3H]VF-6 suspended in ND96 buffers that contained different concentrations of Ca^2+ (0–5 mM; Supplementary Fig. 2). […] The dependence of PfCRT-mediated transport on the membrane potential was examined by using (1) Na^+ ionophore III in conjunction with the Na^+ gradients listed in Supplementary Data 7 and (2) Cl^− ionophore III in conjunction with the Cl^− gradients listed in Supplementary Data 7 to clamp the membrane potential of the oocyte from −80 to +80 mV. […] The kinetic parameters for VF-6 transport via different isoforms of PfCRT (Figs. 3e and 4a) were determined in SigmaPlot Windows Version 11.0 by a least-squares fit of the Michaelis–Menten equation to the data.
A subset of assays measured the ability of solutes known to interact with PfCRT to either cis-inhibit, trans-inhibit or trans-stimulate [^3H]VF-6 transport. These experiments involved adding these solutes to either the cis- or trans-side of the membrane relative to [^3H]VF-6. […] At least five independent experiments were performed (on different days and using oocytes from different frogs), and within each experiment measurements were made from ten oocytes per treatment.

[4] = Peptides tested before peptidomic data was obtained

Row | Compound | Effect on rate of DV alkalinisation / H+ leak (in words) [2] | Effect on rate of DV alkalinisation / H+ leak (in words) [3] | [3H]VF-6 transport, non-expressing oocytes (% PfCRT3D7 control) (non-expressing oocytes; Experiment 1) | [3H]VF-6 transport, non-expressing oocytes (% PfCRT3D7 control) (non-expressing oocytes; Experiment 2) | [3H]VF-6 transport, non-expressing oocytes (% PfCRT3D7 control) (non-expressing oocytes; Experiment 3) | [3H]VF-6 transport, non-expressing oocytes (% PfCRT3D7 control) (non-expressing oocytes; Experiment 4) | [3H]VF-6 transport, non-expressing oocytes (% PfCRT3D7 control) (non-expressing oocytes; Experiment 5) | also measured
1 | DPVN [DN-4] |  |  |  |  |  |  |  | Assignment as substrate or not a substrate based on accumulation ratios from peptidomic data ([1]; Peptides tested after peptidomic data was obtained): substrate
2 | N[C@@H](Cc1c[nH]cn1)C(=O)O [L-histidine] | without effect | without effect |  |  |  |  |  | 
3 | PVNF [VF-6-derived peptide] |  |  | 4.26 % PfCRT3D7 control | 4.58 % PfCRT3D7 control | 4.28 % PfCRT3D7 control | 4.2 % PfCRT3D7 control | 3.58 % PfCRT3D7 control | 
4 | PHFD [PD-4] |  |  |  |  |  |  |  | Assignment as substrate or not a substrate based on accumulation ratios from peptidomic data [1, 4]: substrate
5 | DPVNF [VF-6-derived peptide] |  |  | 3.25 % PfCRT3D7 control | 3.26 % PfCRT3D7 control | 3.78 % PfCRT3D7 control | 3.25 % PfCRT3D7 control | 3.35 % PfCRT3D7 control | 
6 | VDPVN [VF-6-derived peptide] |  |  | 3.62 % PfCRT3D7 control | 3.95 % PfCRT3D7 control | 3.26 % PfCRT3D7 control | 3.58 % PfCRT3D7 control | 3.77 % PfCRT3D7 control | 
7 | CCN(CC)CCCC(C)Nc1ccnc2cc(Cl)ccc12 (stereo not shown) [CQ, chloroquine, reference compound] | decrease slightly | increase |  |  |  |  |  | 
8 | DPVN [VF-6-derived peptide] |  |  | 3.68 % PfCRT3D7 control | 3.18 % PfCRT3D7 control | 3.95 % PfCRT3D7 control | 3.69 % PfCRT3D7 control | 3.36 % PfCRT3D7 control | 
9 | CC(C)(C)NC(=O)[C@@H]1C[C@@H]2CCCC[C@@H]2CN1C[C@@H](O)[C@H](Cc1ccccc1)NC(=O)[C@H](CC(N)=O)NC(=O)c1ccc2ccccc2n1 [Saquinavir, saquinavir, reference compound] | increased the rate of DV alkalinisation | increased the rate of DV alkalinisation |  |  |  |  |  | Maximum rate of peptide mimic-induced DV alkalinization ([2]; mean ± SEM, n = 5, SEM): 0.039 ±0.002 fluorescence ratio/s; Maximum rate of peptide mimic-induced DV alkalinization ([3]; mean ± SEM, n = 5, SEM): 0.022 ±0.004 fluorescence ratio/s
10 | PENF [PEF-4] |  |  |  |  |  |  |  | Assignment as substrate or not a substrate based on accumulation ratios from peptidomic data [1, 4]: substrate
